Laboratory results as given in the NIST ThermoML archive (doi:10.1016/j.fluid.2010.02.030).
Numbers after ± are expanded uncertainties.

Conditions: Liquid, Ebulliometric method (Recirculating still)

Cc1ccc(C)c(C)c1 [1,2,4-trimethylbenzene]
vapor or sublimation pressure (383.15 K): 16.9 ± 0.4 kPa | vapor or sublimation pressure (387.74 K): 20.1 ± 0.4 kPa | vapor or sublimation pressure (400.11 K): 30.3 ± 0.4 kPa | vapor or sublimation pressure (408.87 K): 39.8 ± 0.4 kPa | vapor or sublimation pressure (416.75 K): 50.3 ± 0.4 kPa | vapor or sublimation pressure (422.84 K): 60 ± 0.4 kPa | vapor or sublimation pressure (428.53 K): 70.3 ± 0.4 kPa | vapor or sublimation pressure (433.42 K): 80.3 ± 0.4 kPa | vapor or sublimation pressure (437.83 K): 90.4 ± 0.4 kPa | vapor or sublimation pressure (442.22 K): 101.4 ± 0.4 kPa

CCCCS [1-butanethiol]
vapor or sublimation pressure (328.08 K): 23.1 ± 0.4 kPa | vapor or sublimation pressure (336.1 K): 31.4 ± 0.4 kPa | vapor or sublimation pressure (343.41 K): 40.9 ± 0.4 kPa | vapor or sublimation pressure (350.44 K): 52.1 ± 0.4 kPa | vapor or sublimation pressure (355.65 K): 61.9 ± 0.4 kPa | vapor or sublimation pressure (360.57 K): 72.6 ± 0.4 kPa | vapor or sublimation pressure (364.39 K): 81.9 ± 0.4 kPa | vapor or sublimation pressure (368.05 K): 91.6 ± 0.4 kPa | vapor or sublimation pressure (371.04 K): 100.5 ± 0.5 kPa
